# Measurements published in PMC12440775 (Frontiers in Pharmacology, 2025).
# Experiments:
# [1] = design: method as in Duan et al., 2012; details: rats; ref Duan et al., 2012; cited from earlier work
# [2] = Urinary excretion of unchanged FDV after single ascending dose (Part 1); format: in vivo, human; details: gMean (gCV%)
# Method: Six volunteers received the active drug at each dose level dissolved in a polyethylene glycol (PEG)/tromethamine (TRIS)/meglumine solution, and two received a placebo. One dose level was tested within each group. Subject groups were dosed and evaluated sequentially, beginning with the lowest-dose group and proceeding stepwise to the highest-dose group. The next higher dose was administered only if no safety concerns arose during treatment of the preceding group.
# A blank urine sample was collected prior to drug administration, and two 10-mL aliquots were retained to be checked for analytical interference. All urine voided during the sampling intervals 0–4, 4–12, 12–24, and 24–48 h after administration was collected in containers (Figure 1). Subjects were asked to completely void their bladder at the end of each collection interval. The urine volume for each collection interval was documented. Two aliquots of approximately 5 mL were taken and frozen at −20 °C or below and stored for bioanalytical measurement. Until shipped on dry ice to the analytical laboratory, the urine samples were stored at −20 °C or below at the clinical site and stored in the analytical laboratory at −20 °C or below until analysis.
# Standard formulas for non-compartmental pharmacokinetic analysis provided by WinNonlin were used in determination of the maximum concentration (Cmax), time to maximum concentration (tmax), oral clearance (CL/F), mean residence time (MRTpo), and apparent volume distribution in terminal phase (Vz/F). The area under the plasma concentration–time curve (AUC) was calculated using a linear up/log down trapezoidal algorithm. The predicted concentration at the last time-point with quantifiable concentration was used for extrapolation of AUC. The fraction excreted as unchanged drug in urine (fe) was calculated as the percentage of the amount of drug excreted in urine as unchanged drug (Aet1–t2) compared to the administered dose ([Huang et al., 2008b]).
structure (smiles),measurement,setting,value
"C=C[C@@H]1C[C@]1(NC(=O)[C@@H]1C[C@@H](Oc2cc(-c3csc(NC(=O)C(C)C)n3)nc3c(Br)c(OC)ccc23)CN1C(=O)[C@@H](NC(=O)OC1CCCC1)C(C)(C)C)C(=O)O [FDV, Faldaprevir]",Enrichment in the liver compared with plasma,[1],42 fold
same,Fe0–48h (fraction excreted in urine),[2]; FDV 48 mg single oral dose,0.01 (165) %
same,Fe0–48h (fraction excreted in urine),[2]; FDV 120 mg single oral dose,0.02 (93) %
same,Fe0–48h (fraction excreted in urine),[2]; FDV 240 mg single oral dose,0.04 (68) %
same,Fe0–48h (fraction excreted in urine),[2]; FDV 480 mg single oral dose,0.04 (37) %
same,Fe0–48h (fraction excreted in urine),[2]; FDV 800 mg single oral dose,0.03 (110) %
same,Fe0–48h (fraction excreted in urine),"[2]; FDV 1,200 mg single oral dose",0.03 (54) %
